Assay results from ChEMBL document CHEMBL5518245, “Development of an Imidazopyridazine-Based MNK1/2 Inhibitor for the Treatment of Lymphoma” (J Med Chem, 2024).
pIC50: −log10 of the molar value. One block for each compound: values may come before it.

Legend:
[1] = molecular target: Voltage-gated inwardly rectifying potassium channel KCNH2 (Homo sapiens, UniProt Q12809)
[2] = in vitro; conditions: rat, liver microsomes
[3] = in vitro; conditions: dog, liver microsomes
[4] = in vitro; conditions: human, liver microsomes
[5] = system: LN-18; test: Antiproliferative activity against human LN-18 cells assessed as inhibition of cell growth incubated for 72 hrs MTS assay; format: functional, cell-based; conditions: LN-18, 72 h
[6] = system: TMD8; test: Antitumor activity against human TMD8 cells xenografted in mouse assessed as tumor growth inhibition at 10 mg/kg, po; format: functional; conditions: read-out: TGI
[7] = system: DOHH-2; test: cells; conditions: Homo sapiens, DOHH-2, 72 h
[8] = system: TMD8; test: cells; conditions: Homo sapiens, TMD8, 72 h
[9] = system: MDA-MB-231; test: cells; conditions: Homo sapiens, MDA-MB-231, 72 h
[10] = system: PANC-1; test: cells; conditions: Homo sapiens, PANC-1, 72 h
[11] = system: PC-3; test: cells; conditions: Homo sapiens, PC-3, 72 h
[12] = system: A549; test: cells; conditions: Homo sapiens, A549, 72 h
[13] = system: HT-29; test: cells; conditions: Homo sapiens, HT-29, 72 h

Voltage-gated inwardly rectifying potassium channel KCNH2, sequence (Q12809 whole entry): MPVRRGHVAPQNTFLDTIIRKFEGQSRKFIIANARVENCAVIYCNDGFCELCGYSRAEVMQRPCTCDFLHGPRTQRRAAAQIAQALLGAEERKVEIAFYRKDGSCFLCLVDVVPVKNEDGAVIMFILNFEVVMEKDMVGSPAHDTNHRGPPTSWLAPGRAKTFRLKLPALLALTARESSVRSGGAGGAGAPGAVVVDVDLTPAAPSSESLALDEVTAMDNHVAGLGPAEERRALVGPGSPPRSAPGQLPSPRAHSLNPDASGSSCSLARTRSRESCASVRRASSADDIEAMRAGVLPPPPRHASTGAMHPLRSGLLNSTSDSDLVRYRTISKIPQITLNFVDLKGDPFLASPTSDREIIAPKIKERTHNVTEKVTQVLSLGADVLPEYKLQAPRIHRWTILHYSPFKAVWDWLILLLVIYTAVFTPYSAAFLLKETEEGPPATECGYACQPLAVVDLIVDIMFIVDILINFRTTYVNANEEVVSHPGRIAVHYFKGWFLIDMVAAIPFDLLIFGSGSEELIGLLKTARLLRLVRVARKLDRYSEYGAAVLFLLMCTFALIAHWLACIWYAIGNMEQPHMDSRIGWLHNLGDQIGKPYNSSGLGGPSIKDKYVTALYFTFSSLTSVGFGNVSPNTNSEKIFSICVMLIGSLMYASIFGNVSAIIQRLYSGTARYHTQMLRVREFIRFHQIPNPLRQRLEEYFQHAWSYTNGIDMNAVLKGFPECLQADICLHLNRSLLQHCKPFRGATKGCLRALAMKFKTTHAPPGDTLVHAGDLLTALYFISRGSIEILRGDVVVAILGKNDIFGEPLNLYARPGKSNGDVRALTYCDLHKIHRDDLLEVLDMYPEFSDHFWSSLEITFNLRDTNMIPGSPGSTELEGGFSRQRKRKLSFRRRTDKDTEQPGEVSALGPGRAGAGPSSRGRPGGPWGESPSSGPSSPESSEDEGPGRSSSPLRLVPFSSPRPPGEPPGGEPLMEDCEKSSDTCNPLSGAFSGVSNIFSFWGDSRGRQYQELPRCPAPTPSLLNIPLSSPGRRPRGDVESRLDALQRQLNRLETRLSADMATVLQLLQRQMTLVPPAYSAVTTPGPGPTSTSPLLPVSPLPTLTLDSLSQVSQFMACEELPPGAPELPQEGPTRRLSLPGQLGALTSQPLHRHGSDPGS

SMILES: NC1CCN(C(=O)c2ccc(-c3ccc4ncc(-c5cc6ccccc6o5)n4c3)cc2)CC1
pIC50 [1]: 5.36

SMILES: N[C@H]1CCCN(C(=O)c2ccc(-c3ccc4ncc(-c5cc6ccccc6o5)n4n3)cc2)C1
pIC50 [1]: < 4.52

SMILES: CN(C)C1CCN(C(=O)c2ccc(-c3ccc4ncc(-c5cc6ccccc6o5)n4c3)cc2)CC1
pIC50 [1]: 5.99

SMILES: O=C(c1ccc(-c2ccc3ncc(-c4cc5ccccc5o4)n3n2)cc1)N1CCC(N2CCCCC2)CC1
pIC50 [1]: < 4.52

SMILES: O=C(c1ccc(-c2ccc3ncc(-c4cc5ccccc5o4)n3n2)cc1)N1CCOCC1
pIC50 [1]: < 4.52

SMILES: N[C@@H]1CCCN(C(=O)c2ccc(-c3ccc4ncc(-c5cc6ccccc6o5)n4n3)cc2)C1
pIC50 [1]: 5.24

SMILES: N[C@@H]1CCCN(C(=O)c2ccc(-c3ccc4ncc(-c5cc6ccccc6o5)n4c3)cc2)C1
pIC50 [1]: 5.33

SMILES: CN(C)C1CCN(C(=O)c2ccc(-c3ccc4ncc(-c5cc6ccccc6o5)n4n3)cc2)CC1
pIC50 [1]: 5.53

SMILES: NC1CCN(C(=O)c2ccc(-c3ccc4ncc(-c5cc6ccccc6o5)n4n3)cc2)CC1
pIC50 [1]: 5.10

half-life [2]: 0.302 h
half-life [3]: 1.39 h
half-life [4]: 1.12 h
SMILES: N#Cc1ccc(-c2cnc3ccc(-c4ccc(C(=O)N5CCOCC5)cc4)cn23)cc1 [TINODASERTIB]

half-life [2]: > 2 h
pIC50 [7]: 5.20
pIC50 [8]: < 4.30
half-life [3]: > 2 h
pIC50 [9]: 4.35
half-life [4]: > 2 h
pIC50 [10]: < 4.30
pIC50 [11]: 4.53
pIC50 [12]: < 4.30
pIC50 [13]: < 4.30
SMILES: Cc1cc(Nc2cc(N)ncn2)c(=O)n2c1C(=O)NC21CCCCC1 [TOMIVOSERTIB]
pIC50 [5]: 5.20
inhibition in vivo at 10 mg/kg [6]: 75%
pIC50 [1]: < 4.52
